Data as given in patent US6623933B1 (priority 1999, dated 2003).
Where “and” joins values, the source holds several entries; their conditions need not be identical. Equal values may be shown once. Where a name gives a salt, the structure may show the parent alone.

Columns and labels:
[1] = target: NR1/NR2B (NR1100) (Rattus norvegicus, UniProt P35439+Q00960); assay: cell-based
Description: (§3) Plasmids containing the NR1100 (NR1G) and NR2A cDNA inserts were kindly provided by Dr. Nakanishi (Kyoto University Faculty of Medicine, Kyoto, Japan). Plasmids containing the NR2B, NR2C and NR2D cDNA inserts were kindly provided by Dr. P. Seeburg (Heidelberg University, Heidelberg, Germany). Plasmids were linearized with appropriate restriction enzyme prior to in vitro transcription using the Message Machine kit (Ambion, Inc., Austin, Tex.).
(§4) Female, oocyte-positive Xenopus laevis frogs were purchased from Xenopus I (Dexter, Mich.). […] Oocytes were injected with 50 nL of RNA solutions using an electronic microinjector (Drummond Inc., Broomall, Pa.). […] The injected oocytes were used for experiments following 1-5 days of incubation in Barth's solution at 18-20° C.
(§5) The microelectrodes were fabricated from borosilicate glass capillaries with a programmed puller (Sutter Instrument Co., Calif.). Microelectrode resistance was 1-3 MΩ_when filled with 3 M KCl.
(§6) Except where otherwise stated, oocytes were clamped at a holding potential of −70 mV during data acquisition. The membrane current was filtered at 500 Hz and sampled at 100 Hz. Drugs were applied using a gravity-driven external perfusion system. The working volume of the recording chamber was 30 μl and the rate of the perfusion was 50 μl/sec. The drug application lasted 10 sec and was followed by 60 s wash. Data acquisition and external perfusion were controlled using custom-written software implemented in the SuperScope II development environment (GW Instruments, Mass.). All experiments were performed at room temperature of 22-24° C. Peak or steady-state current measurements were normalized and expressed as a fraction of the peak or steady-state control current measurements, which were performed before and after application of every single concentration of agonists or steroids.
(§7) Concentration-response data were analyzed by nonlinear regress ion using the logistic equation Response=Emax/(1+(EC50/c)^nH), where c is concentration, Emaxis the maximum response, nHis the Hill coefficient. The data are presented as mean±SEM. EC50values are averaged as logarithms (De Lean et al., Am. J. Physiol. 235: E97-E102 (1978))±the SEM of the log EC50. […] The pooled data were simultaneously fitted to the logistic equation, either with Emax and EC50 constrained to be identical in the presence and absence of PS, or allowing one or both to vary independently. […] This was regarded as indicating a significant treatment effect of PS, but the change in EC50and Emaxwas not considered significant. […] No attempt was made to test the generally small changes in nHfor statistical significance.

[2] = target: NR1/NR2C (NR1100) (Rattus norvegicus, UniProt P35439+Q00961); assay: cell-based
Description: as §3, §4, §5, §6, §7

[3] = target: T1, wild-type NR1a/NR2A (Rattus norvegicus, UniProt P35439+Q00959); assay: NMDA-induced currents, Xenopus oocytes, Example 5; format: cell-based; details: 100 uM steroid, 300 uM NMDA, 50 uM Glycine
T1 construct: expressed in transfected cells; host or cells: Xenopus laevis oocytes injected with in vitro transcribed mRNA
Description: (§8) Plasmids were linearized with appropriate restriction enzyme prior to in vitro transcription using the Message Machine kit (Ambion, Inc., Austin, Tex.).
Female, oocyte positive Xenopus laevis frogs were purchased from Xenopus I (Dexter, Mich). […] Oocytes were injected with 50 nL of RNA solutions using an electronic microinjector (Drummond Inc., Broomall, Pa.). […] The injected oocytes were used for experiments following 1-5 days of incubation in Barth's solution at 18-20° C.
The microelectrodes were fabricated with a programmed puller (Sutter Instrument Co., Calif.) from borosilicate glass capillaries and were filled with 3 M KCl solution. The resistance of filled microelectrodes was in the range of 1-3 MΩ. […] If not mentioned otherwise, during data acquisition oocytes were clamped at a holding potential of −70 mV. The membrane current was filtered at 500 Hz and sampled at 100 Hz. Drugs were applied using a gravity driven external perfusion system. The working ,volume of the recording chamber was 30 μl and the rate of the perfusion was 50 μl/sec. The drug application lasted 10 sec and was followed by a 60 sec wash. The data acquisition and external perfusion control were done using the SuperScopeII software package (GW Instruments, Mass.). All experiments were performed at room temperature (22-24° C.). […] The data are presented as mean±S.E.M. with number of experiments in parentheses.

[4] = system: AMPA/kainate receptor (rat brain poly(A)+ RNA); assay: Kainate-evoked currents, Xenopus oocytes injected with rat brain poly(A)+ RNA; format: cell-based
[5] = target: T2, NR1/NR2B (Rattus norvegicus, UniProt P35439+Q00960); assay: NMDA-induced membrane currents, Xenopus oocytes, Example 7; format: cell-based
T2 construct: expressed in transfected cells; host or cells: Xenopus oocytes injected with mRNA
Description: as §8
Oocytes were injected with 50 nL of RNA solutions using an electronic microinjector (Drummond Inc., Broomall, Pa.). […] The injected oocytes were used for experiments following 1-5 days of incubation in Barth's solution at 18-20° C.
The microelectrodes were fabricated with a programmed puller (Sutter Instrument Co., Calif.) from borosilicate glass capillaries and were filled with 3 M KCl solution. The resistance of filled microelectrodes was in the range of 1-3 MΩ. […] If not mentioned otherwise, during data acquisition oocytes were clamped at a holding potential of −70 mV. The membrane current was filtered at 500 Hz and sampled at 100 Hz. Drugs were applied using a gravity driven external perfusion system. The working ,volume of the recording chamber was 30 μl and the rate of the perfusion was 50 μl/sec. The drug application lasted 10 sec and was followed by a 60 sec wash. The data acquisition and external perfusion control were done using the SuperScopeII software package (GW Instruments, Mass.). […] Peak or steady-state current measurements were normalized and expressed as a fraction of the peak or steady-state control current measurements, which were performed before and after application of every single consentration of agonist or steroid. […]

[6] = target: T3, NR1011/NR2B-D Chimera (III) (Rattus norvegicus, UniProt P35439+Q00960, A556P/A573T/A605S/A700P/A704S/A794R/A827V/A830G/C588S/C838W/D557A/D591T/D676E/D715E/D716E/D769G/DEL851-864/E594R/E701D/E791M/E804D/F554Y/F580L/F677Q/F681L/F709Y/F784L/F842V/F846L/G611A/G707V/G713R/G741R/G771R/G787D/G826L/I530V/I568T/I766L/I780L/I834L/I837A/I868M/INS849[…]/K624R/K669R/K708R/L566C/L719T/L783F/M789I/N675Q/N697S/N806I/P598S/Q621E/Q662T/Q767H/Q775P/Q812K/Q845R/R593K/R682K/R693K/R712P/R742K/S539A/S570V/S599T/S633L/S678Y/S720Q/S759T/T723A/T798S/T835V/V576I/V776I); assay: NR2 chimera study, Xenopus oocytes, Example 7; format: cell-based; details: 100 μM PS; 300 μM NMDA; 50 μM Glycine
T3 construct: expressed in transfected cells; host or cells: Xenopus oocytes
Description: (§1) To produce the first subunit, 96% of the cytoplasmic COOH-terminal region of the NR2B subunit (residues 870 to 1482) were replaced with the corresponding region of the NR2D subunit (residues 892 to 1323).
(§2) The chimeric receptors were generated by first introducing a series of silent restriction sites in both the NR2B and NR2D cDNA. The chimeric cDNAs were then constructed by replacing corresponding regions of one cDNA with that of the other. The silence site mutations were generated by a method involving PCR. […] This cassette was then ligated into the cDNA cut with the same two restriction enzymes.

[7] = target: T4, NR1011/NR2B-D Chimera(II) (Rattus norvegicus, UniProt P35439+Q00960+Q62645, A556P/A573T/A605S/A700P/A704S/A794R/A827V/A830G/C588S/C838W/D557A/D591T/D676E/D715E/D716E/D769G/E594R/E701D/E791M/E804D/F554Y/F580L/F677Q/F681L/F709Y/F784L/F842V/F846L/G611A/G707V/G713R/G741R/G771R/G787D/G826L/I530V/I568T/I766L/I780L/I834L/I837A/K624R/K669R/K708R/L566C/L719T/L783F/M789I/N675Q/N697S/N806I/P598S/Q621E/Q662T/Q767H/Q775P/Q812K/Q845R/R593K/R682K/R693K/R712P/R742K/S539A/S570V/S599T/S633L/S678Y/S720Q/S759T/T723A/T798S/T835V/V576I/V776I); assay: NR2 chimera study, Xenopus oocytes, Example 7; format: cell-based; details: 100 μM PS; 300 μM NMDA; 50 μM Glycine
T4 construct: expressed in transfected cells; host or cells: Xenopus oocytes
Description: as §1, §2

[8] = target: T5, NR1011/NR2B-D Chimera(I) (Rattus norvegicus, UniProt P35439+Q00960+Q62645); assay: NR2 chimera study, Xenopus oocytes, Example 7; format: cell-based; details: 100 μM PS; 300 μM NMDA; 50 μM Glycine
T5 construct: expressed in transfected cells; host or cells: Xenopus oocytes
Description: as §1, §2

[9] = target: T6, NR1001/NR2B (Rattus norvegicus, UniProt P35439+Q00960); assay: NMDA receptor currents in Ba-Ringer, Xenopus oocytes, Example 3; format: cell-based
T6 construct: expressed in transfected cells; host or cells: Xenopus oocytes

[10] = target: T7, NR1000/NR2B (Rattus norvegicus, UniProt P35439+Q00960); assay: as above; format: cell-based
T7 construct: expressed in transfected cells; host or cells: Xenopus oocytes injected with RNA

[11] = target: T8, NR1011/NR2B-D chimera(IV) (Rattus norvegicus, UniProt P35439+Q62645, A747T/A861I/D811G/D828E/DEL874-885/E739D/E740D/F807L/G793D/G854A/H791Q/I800V/I813M/I830N/INS886[…]/K766R/K836Q/L790I/L804I/L808F/L850G/L858I/L870F/M815E/M890I/P736R/P799Q/Q744S/R732K/R737G/R765G/R795G/R818A/R869Q/S728A/S822T/T743L/T783S/V731G/V851A/V859T/V866F/W862C/Y733F); assay: NR2 chimera study, Xenopus oocytes, Example 7; format: cell-based; details: 100 μM PS; 300 μM NMDA; 50 μM Glycine
T8 construct: expressed in transfected cells; host or cells: Xenopus oocytes
Description: In the fourth chimera receptor, NR2B-DChimera (IV), the residues 727 to 892 were replaced on NR2D with residues 703 to 870 of NR2B, which contains the second extracellular domain, the fourth hydrophobic transmembrane domain and 31 residues from the C-terminal intracellular tail.
as §2

[12] = target: T9, NR1101/NR2B (Rattus norvegicus, UniProt P35439+Q00960); assay: NMDA receptor currents in Ba-Ringer, Xenopus oocytes, Example 3; format: cell-based
T9 construct: expressed in transfected cells; host or cells: Xenopus oocytes

[13] = read-out: 3α5βS Emax (% Change)

Sequence of NR1/NR2C (NR1100) (Q00961 20-1237, other chains not shown): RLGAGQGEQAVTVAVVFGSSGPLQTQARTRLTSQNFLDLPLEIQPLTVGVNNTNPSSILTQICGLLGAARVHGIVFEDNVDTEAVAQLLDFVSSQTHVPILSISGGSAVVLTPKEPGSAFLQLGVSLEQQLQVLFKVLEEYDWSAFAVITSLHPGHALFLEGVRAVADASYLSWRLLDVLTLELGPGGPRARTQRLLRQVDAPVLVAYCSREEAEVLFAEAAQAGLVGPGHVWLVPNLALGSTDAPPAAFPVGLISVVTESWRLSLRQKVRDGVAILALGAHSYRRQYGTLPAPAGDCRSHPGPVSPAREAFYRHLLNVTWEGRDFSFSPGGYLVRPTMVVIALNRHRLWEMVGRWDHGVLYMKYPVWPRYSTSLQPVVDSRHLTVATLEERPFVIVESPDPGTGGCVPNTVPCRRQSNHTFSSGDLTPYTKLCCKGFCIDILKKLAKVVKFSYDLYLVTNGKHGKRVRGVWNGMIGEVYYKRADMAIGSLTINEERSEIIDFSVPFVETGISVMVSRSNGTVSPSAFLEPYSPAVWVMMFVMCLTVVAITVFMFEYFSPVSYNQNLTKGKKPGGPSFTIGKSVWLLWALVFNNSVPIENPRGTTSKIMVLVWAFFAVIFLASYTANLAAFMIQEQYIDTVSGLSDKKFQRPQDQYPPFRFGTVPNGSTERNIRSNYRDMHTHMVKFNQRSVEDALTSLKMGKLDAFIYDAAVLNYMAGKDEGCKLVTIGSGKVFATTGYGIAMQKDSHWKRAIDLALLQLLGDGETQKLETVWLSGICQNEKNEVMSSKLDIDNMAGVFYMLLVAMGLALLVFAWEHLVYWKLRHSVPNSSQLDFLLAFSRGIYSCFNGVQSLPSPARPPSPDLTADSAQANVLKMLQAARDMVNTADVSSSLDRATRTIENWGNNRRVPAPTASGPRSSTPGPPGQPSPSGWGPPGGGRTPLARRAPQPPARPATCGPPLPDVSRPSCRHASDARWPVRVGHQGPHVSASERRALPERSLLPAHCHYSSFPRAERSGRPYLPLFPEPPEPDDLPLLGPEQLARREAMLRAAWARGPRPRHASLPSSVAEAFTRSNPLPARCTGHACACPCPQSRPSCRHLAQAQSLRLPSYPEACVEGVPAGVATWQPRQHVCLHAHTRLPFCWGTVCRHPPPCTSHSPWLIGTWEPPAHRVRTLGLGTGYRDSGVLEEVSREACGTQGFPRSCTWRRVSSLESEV
T6 sequence (Q00960 27-1482, other chains not shown): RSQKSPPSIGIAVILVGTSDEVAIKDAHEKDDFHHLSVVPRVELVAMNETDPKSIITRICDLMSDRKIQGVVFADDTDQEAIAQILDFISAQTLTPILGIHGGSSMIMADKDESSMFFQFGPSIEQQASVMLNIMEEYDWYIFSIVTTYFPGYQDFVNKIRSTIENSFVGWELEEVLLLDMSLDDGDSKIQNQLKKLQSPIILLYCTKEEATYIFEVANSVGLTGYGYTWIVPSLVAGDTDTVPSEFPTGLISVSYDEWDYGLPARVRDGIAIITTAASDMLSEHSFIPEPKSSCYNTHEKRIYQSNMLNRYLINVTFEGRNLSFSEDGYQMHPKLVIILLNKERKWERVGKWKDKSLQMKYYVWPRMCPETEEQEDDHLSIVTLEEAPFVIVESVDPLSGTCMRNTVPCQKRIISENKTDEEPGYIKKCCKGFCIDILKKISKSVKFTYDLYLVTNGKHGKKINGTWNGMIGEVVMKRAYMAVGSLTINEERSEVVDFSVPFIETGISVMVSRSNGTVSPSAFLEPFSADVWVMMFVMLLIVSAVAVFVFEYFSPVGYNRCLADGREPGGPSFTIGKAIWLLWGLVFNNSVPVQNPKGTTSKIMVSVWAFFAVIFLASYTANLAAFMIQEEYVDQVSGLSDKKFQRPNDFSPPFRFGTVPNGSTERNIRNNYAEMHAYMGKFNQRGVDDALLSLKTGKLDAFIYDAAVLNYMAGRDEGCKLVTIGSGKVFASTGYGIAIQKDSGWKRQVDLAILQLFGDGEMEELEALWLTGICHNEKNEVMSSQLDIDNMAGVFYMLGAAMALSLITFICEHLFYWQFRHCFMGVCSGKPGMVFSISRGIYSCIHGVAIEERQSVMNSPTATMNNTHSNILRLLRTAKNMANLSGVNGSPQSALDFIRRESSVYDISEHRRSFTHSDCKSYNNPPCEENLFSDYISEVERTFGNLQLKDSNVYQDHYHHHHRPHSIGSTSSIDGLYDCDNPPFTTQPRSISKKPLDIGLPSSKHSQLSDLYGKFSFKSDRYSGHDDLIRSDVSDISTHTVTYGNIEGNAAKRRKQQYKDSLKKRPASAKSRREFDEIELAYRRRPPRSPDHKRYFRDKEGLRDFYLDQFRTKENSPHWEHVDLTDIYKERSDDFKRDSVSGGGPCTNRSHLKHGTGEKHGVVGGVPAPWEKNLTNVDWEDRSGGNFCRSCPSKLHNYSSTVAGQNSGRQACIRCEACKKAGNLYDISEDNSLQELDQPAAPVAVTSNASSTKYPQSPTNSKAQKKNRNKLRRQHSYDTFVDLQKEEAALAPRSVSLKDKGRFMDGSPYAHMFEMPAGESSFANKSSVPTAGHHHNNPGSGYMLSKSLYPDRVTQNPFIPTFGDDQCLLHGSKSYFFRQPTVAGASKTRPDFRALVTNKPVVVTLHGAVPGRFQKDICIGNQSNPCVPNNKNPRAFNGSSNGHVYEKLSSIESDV
Sequence of NR1/NR2B (NR1100) (Q00960 27-1482, other chains not shown): as above

Row | Compound | EC50 [1] | Emax [1, 13] | EC50 [2] | Emax [2, 13] | percent decrease in maximum inward current [3] | onset of inhibition [4] | reduction in kainate-evoked responses ([4]; 100 μM PS, 100 μM kainate) | potentiation of membrane current ([5]; 100 μM PS, […] μM NMDA, 10 μM glycine) | maximum potentiation ([5]; PS 0.5 to 200 μM) | inhibition of inward current [6] | inhibition of inward current [7] | potentiation of inward current [8] | PS Emax [9] | PS nHill [9] | PS Emax [10] | PS nHill [10] | potentiation of inward current [11] | PS Emax [12] | PS nHill [12]
1 | CC(=O)[C@H]1CC[C@H]2[C@@H]3CC[C@@H]4C[C@H](OS(=O)(=O)O)CC[C@]4(C)[C@H]3CC[C@]12C [3α5βS, 3α5β-pregnanolone sulfate] | 38 µM | -82 ± 1% | 12 µM | -99 ± 2% | 45.49±5.76% |  |  |  |  |  |  |  |  |  |  |  |  |  | 
2 | pregnenolone sulfate [PS] |  |  |  |  |  | < 10 s | 49±3% | 95±6% | 119±9% | 36.74±6.54% | 43.04±5.44% | 52.69±3.58% | 0.63 ± 0.07 | 1.34 ± 0.17 | 0.58 ± 0.04 | 1.52 ± 0.15 | 66.05±2.75% and 66.05±2.76% | 1.03 ± 0.02 | 1.63 ± 0.29
